Where “and” joins values, the source holds several entries; their conditions need not be identical. Equal values may be shown once. Entries after “also recorded” stand apart in the source; their conditions may differ. Read-outs that look alike come from different tables or passages of the source.
Experiments:
[1] = target: T1, Lewy bodies in α-Syn A53T virus injected WT mice brain slices (Homo sapiens, UniProt P37840, A53T); experiment: staining of mouse brain slices with Lewy bodies; format: binding
T1 construct: from tissue; host or cells: brain (substantia nigra) of wild-type mice injected with α-Syn A53T virus
Method: To further explore whether the positive compounds selectively bind to the Lewy bodies, α-Syn A53T patient-derived mutant virus injected WT mice brain slices were employed. These mice display extensive Lewy bodies in the SN.
To further explore whether the positive compounds selectively bind to the Lewy bodies, a α-Syn A53T patient-derived mutant virus was injected into WT mice brain slices. These mice display extensive Lewy bodies in the Substantial nigra (SN). Moreover, P301S mice expressed neurofibrillary tangles (NFT). The Lewy bodies were labeled with p-α-Syn S129 antibody and the positive aggregates were also labeled with the fluorescent signals from the small molecules. […] However, it was worth noting that almost none of the tested compounds were reactive with NFT.

[2] = target: T2, LBs and LNs in DLB and MSA patient brains (Homo sapiens, UniProt P37840); experiment: ex vivo screening on DLB and MSA patient brain sections; format: binding
T2 construct: from tissue; host or cells: brain sections of DLB and MSA patients
Source text: (§1) Ex vivo screening was extended into human DLB, MSA and AD patient samples. […] Since there are detectable α-Syn aggregates in AD patient brains, these compounds colocalized with p-S129 positive α-Syn inclusions.
(§2) The ex vivo screening was extended into human DLB, MSA and AD patient samples. Neurodegenerative disease of DLB (dementia with Lewy Bodies) and MSA belongs to synucleinopathies with well-defined Lewy bodies.

α-Syn PFFs = α-Syn PFFs (Homo sapiens, UniProt P37840); experiment: fluorescence spectroscopy titration with α-Syn PFFs; format: binding; conditions: 0.08 μM fibrils, 5 μM small molecule, result in words
Method: (§3) A fluorescent titration assay was conducted. The fluorescent emission intensities were determined with 0.08 μM of various fibrils in the presence of 5 μM of the small molecules.
(§4) To further investigate the selected compounds binding activities with α-Syn PFFs, fluorescence spectroscopy titrations were conducted to quantitatively measure compounds emission intensity when interacting with different concentrations of α-Syn PFFs. The UV spectrum of each compound was determined and selected for the optimal wavelength to conduct the fluorescence spectroscopic studies.

[3] = tested on: senile plaques or NFT in AD; experiment: ex vivo screening on AD patient brain sections; format: binding, human
Source text: as §1, §2

[4] = plasma-brain ratio study / in vivo PK of EU compounds; set-up: species or system mouse
Method: To address whether the selected compounds penetrate the brain, a plasma-brain ratio study was performed with EU04-03A, EU05-02A and EU05-02B.
To test whether these compounds are brain permeable in vivo, in vivo PK profiling was conducted to determine brain exposure.

[5] = tested on: neurons with Aβ or Tau aggregates; experiment: neuronal Aβ and Tau aggregation models, fluorescent microscopy; format: cell-based; conditions: primary cultured neurons
Source text: (§5) A series of derivatives were synthesized by including an amino group and a methyl group on benzothiazole to increase the brain permeability and fluorescent signals. The derivatives were subsequently subjected to α-Syn PFFs binding assay and counter-screening with Tau and Aβ PFFs. […] These compounds were screened on the neuronal α-Syn, Tau and Aβ aggregation model for the binding selectivity. Primary cultured neurons were infected with AAV-α-Syn, AAV-Tau FL for 7 days, then treated with α-Syn, Tau or Aβ PFFs. In a few days, the positive compounds were added in the primary neurons with indicated aggregates and analyzed under fluorescent microscopy.
(§6) Primary cultured neurons were infected with AAV-α-Syn, AAV-Tau FL or AAV-APP fragment virus for 7 days, and then treated with α-Syn, Tau or Aβ PFFs by following the described protocols (Volpicelli-Daley et al., 2014). In a few days, the positive compounds were added in the primary neurons with indicated aggregation.

α-Syn aggregated neurons = experiment: neuronal α-Syn aggregation model, fluorescent microscopy; format: cell-based; conditions: primary cultured neurons, AAV-α-Syn plus α-Syn PFFs
Source text: as §5, §6

Tau PFFs = Tau PFFs (Homo sapiens, UniProt P10636); experiment: fluorescence spectroscopy titration with Tau PFFs; format: binding; conditions: 0.08 μM fibrils, 5 μM small molecule; result in words
Method: as §3, §4

Tau PFFs, sequence (P10636 whole entry): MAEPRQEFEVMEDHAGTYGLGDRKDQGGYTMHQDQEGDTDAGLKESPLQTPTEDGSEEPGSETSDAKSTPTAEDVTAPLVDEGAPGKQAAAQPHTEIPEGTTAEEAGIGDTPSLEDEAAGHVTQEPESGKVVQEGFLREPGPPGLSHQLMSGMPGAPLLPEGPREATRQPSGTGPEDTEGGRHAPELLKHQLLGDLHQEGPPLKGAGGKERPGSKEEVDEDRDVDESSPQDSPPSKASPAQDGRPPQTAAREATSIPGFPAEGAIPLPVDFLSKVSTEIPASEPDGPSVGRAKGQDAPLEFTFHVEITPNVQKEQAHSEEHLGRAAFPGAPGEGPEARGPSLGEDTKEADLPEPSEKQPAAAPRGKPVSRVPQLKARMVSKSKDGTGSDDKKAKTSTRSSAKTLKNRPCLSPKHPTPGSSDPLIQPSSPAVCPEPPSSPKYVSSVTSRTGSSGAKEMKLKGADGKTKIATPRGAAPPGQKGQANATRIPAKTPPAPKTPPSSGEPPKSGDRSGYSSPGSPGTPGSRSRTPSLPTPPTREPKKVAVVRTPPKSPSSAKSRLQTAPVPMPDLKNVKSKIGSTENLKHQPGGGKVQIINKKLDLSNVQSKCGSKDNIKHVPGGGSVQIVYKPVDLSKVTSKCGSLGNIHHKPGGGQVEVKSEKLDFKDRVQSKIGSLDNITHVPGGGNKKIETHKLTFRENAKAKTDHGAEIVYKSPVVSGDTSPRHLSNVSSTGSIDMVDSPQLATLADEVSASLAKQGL

Structure (SMILES): COc1cc(/C=C/c2nc3ccc(N(C)C)cc3s2)ccc1O [EU-004-02A, (E)-4-(2-(6-(dimethylamino)benzo[d]thiazol-2-yl)vinyl)-2-methoxyphenol]
- staining of Lewy bodies (p-α-Syn S129 positive) [1]: signals were very weak

Structure (SMILES): CCNc1ccc2nc(/C=C/c3ccc(O)c(OC)c3)sc2c1 [EU-004-03A, (E)-4-(2-(6-(ethylamino)benzo[d]thiazol-2-yl)vinyl)-2-methoxyphenol]
- staining of LBs and LNs [2]: robust signals with LBs and LNs
- staining of LBs and LNs ([2]; listed as EU04-03A): co-stained with Lewy bodies
- binding to α-Syn PFFs by fluorescent emission intensity (α-Syn PFFs): but not EU-05-02A and EU-04-03A showed specific association with the PFFs
- staining of senile plaques or NFT (Aβ, AT8 positive aggregates) [3]: barely co-stained with anti-AD or AT8 positive aggregate signals
- staining of senile plaques or NFT (Aβ, AT8 positive aggregates) ([3]; listed as EU04-03A): barely recognized AT8 positive Tau NFT or Aβ aggregates in AD brains
- brain permeability ([4]; mice, i.v., result in words, listed as EU04-03A): swiftly penetrated the brain and exhibited much higher brain permeability compared to EU05-02A; also recorded: higher brain permeability than EU05-02B
- fluorescent signal in neurons with Aβ or Tau aggregates [5]: negligible effects in neurons with Aβ or Tau aggregates
- fluorescent signal in α-Syn aggregated neurons (α-Syn aggregated neurons): positive for selective binding
- fluorescent signal in α-Syn aggregated neurons (α-Syn aggregated neurons; listed as EU04-03A): positive signals in α-Syn aggregated neurons

Structure (SMILES): COc1cc(/C=C/c2nc3cc(C)c(N(C)C)cc3s2)ccc1O [EU-005-02A, (E)-4-(2-(6-(dimethylamino)-5-methylbenzo[d]thiazol-2-yl)vinyl)-2-methoxyphenol]
- staining of Lewy bodies (p-α-Syn S129 positive) [1]: signals were very weak
- binding to Tau PFFs by fluorescent emission intensity (Tau PFFs): strongly bound to both α-Syn and Tau PFFs
- staining of LBs and LNs [2]: robust signals with LBs and LNs
- staining of LBs and LNs ([2]; listed as EU05-02A): co-stained with Lewy bodies
- binding to α-Syn PFFs by fluorescent emission intensity (α-Syn PFFs): strongly bound to both α-Syn and Tau PFFs
- binding to α-Syn PFFs by fluorescent emission intensity (α-Syn PFFs; listed as EU-05-02A): but not EU-05-02A and EU-04-03A showed specific association with the PFFs
- staining of senile plaques or NFT (Aβ, AT8 positive aggregates) [3]: barely co-stained with anti-AD or AT8 positive aggregate signals
- staining of senile plaques or NFT (Aβ, AT8 positive aggregates) ([3]; listed as EU05-02A): barely recognized AT8 positive Tau NFT or Aβ aggregates in AD brains
- B/P ([4]; Male ICR Mouse, 5 mg/kg IV, 0.50 h, single animals, 5 mg/kg): 0.65 and 1.62 and 0.69
- B/P ([4]; Male ICR Mouse, 5 mg/kg IV, 1.00 h, single animals, 5 mg/kg): 0.46 and 0.26
- B/P ([4]; Male ICR Mouse, 5 mg/kg IV, 2.00 h, single animals, 5 mg/kg): 0.49 and 0.34
- Kp at 0.5 h ([4]; male, ICR, mouse, brain, iv, 5 mg/kg, Male ICR Mouse, 5 mg/kg IV, 0.50 h, read-out: B/P Mean): 0.99
- Kp at 1 h ([4]; male, ICR, mouse, brain, iv, 5 mg/kg, Male ICR Mouse, 5 mg/kg IV, 1.00 h, single animals, read-out: B/P): 0.52
- Kp at 1 h ([4]; male, ICR, mouse, brain, iv, 5 mg/kg, Male ICR Mouse, 5 mg/kg IV, 1.00 h, read-out: B/P Mean): 0.41
- Kp at 2 h ([4]; male, ICR, mouse, brain, iv, 5 mg/kg, Male ICR Mouse, 5 mg/kg IV, 2.00 h, single animals, read-out: B/P): 0.42
- Kp at 2 h ([4]; male, ICR, mouse, brain, iv, 5 mg/kg, Male ICR Mouse, 5 mg/kg IV, 2.00 h, read-out: B/P Mean): 0.41
- in vivo half-life / decay ([4]; mice, i.v. 5 mg/kg, result in words): decayed 2 h after i.v. administration
- fluorescent signal in neurons with Aβ or Tau aggregates [5]: negligible effects in neurons with Aβ or Tau aggregates
- fluorescent signal in α-Syn aggregated neurons (α-Syn aggregated neurons): positive for selective binding
- fluorescent signal in α-Syn aggregated neurons (α-Syn aggregated neurons; listed as EU05-02A): positive signals in α-Syn aggregated neurons

— patent publication US11844846B2, “Styrylbenzothiazole derivatives and uses in imaging methods” (Emory University, priority 2018, dated 2023)
